Reference: publication PMC8708382, “Heterocyclic Cathinones as Inhibitors of Kynurenine Aminotransferase II—Design, Synthesis, and Evaluation” (Pharmaceuticals, 2021)
Structures can show the parent of a compound that is named as a salt. Where two headings read alike, the source gives them in different places.

How the values were obtained:
hKAT-II = target: T1, hKAT-II (Homo sapiens, UniProt Q8N5Z0); test: Coupled fluorescence in vitro inhibition assay of hKAT-II; assay type: biochemical; conditions: 20 nM hKAT-II; for Inhibitory Activity [%I ± SEM] c = 1 µM: 30 min pre-incubation with enzyme, mean ± SEM; for IC50: 30 min pre-incubation
T1 construct: hexahistidine tag (N); made in house; host or cells: E. coli BL21(DE3)-RIL
Description: The inhibitory activity of amino ketones 11 and 12 was evaluated using a fluorimetric in vitro assay. The activity was determined as the percentage of inhibition (%I) at a concentration of 1 µmol/L and also as IC50 values (Table 1). The observed inhibitory activity confirmed the validity of the computational model and was suitable to conduct a synthesis-directed SAR study around the predicted heterocyclic α-amino ketone structure.
The nucleotide sequence encoding hKAT-II gene was constructed by Invitrogen, Thermo Fisher Scientific. The hKAT-II gene, optimized for heterologous expression in E. coli, was cloned into a pET15b vector using NdeI-XhoI. The hKAT-II protein, carrying an N-terminal hexahistidine tag, was produced in E.coli BL21(DE3)-RIL cells for 4 h at 37 °C. The bacterial cells were then harvested and disintegrated using One-Shot. […] (25.000× g, 30 min) centrifugation cleared cell lysate containing hKAT-II was loaded on the top of a HisTrap Fast Flow column (Cytiva) equilibrated in loading buffer (40 mM Tris, pH 8; 1000 mM NaCl, 40 µM PLP, 5 mM MgCl2, 20 mM imidazole). Following elution of the bound proteins by the loading buffer containing 600 mM imidazole, purified hKAT-II was dialyzed into a storage buffer (20 mM Hepes pH 7.5; 50 mM NaCl, 70 µM PLP, 10% glycerol), concentrated to 1.0–1.5 mg/mL, aliquoted, and stored at −80 °C.
hKAT-II activity was measured using a fluorescence assay utilizing L-α-aminoadipic acid (AAD) and α-ketoglutarate as the substrates as previously described. The assay medium (100 µL) consisted of 0.75 µM of hKAT-II, 0.3 mM of AAD, 50 µM α-ketoglutarate, 3 mM NAD^+, 88 µg/mL of glutamic dehydrogenase, and 5 µM pyridoxal phosphate (PLP) in a 0.1 M phosphate buffer pH 7.5. The activity of the enzyme was assessed on a Spark multiple mode reader (Tecan Group Ltd., Männedorf, Switzerland) with an excitation wavelength of 340 nm and emission wavelength of 390 nm at 37 °C. The plate was shaken for 20 s before reading. The kinetic interval was set at 30 s between each reading, and data were collected for 30 min. The activity of the enzyme was assayed in pentaplicate in each measurement (n = 3). Kinetic data were then collected over a period of 30 min, and the linear part of the initial velocity was used to calculate the enzyme activity expressed as the slope of the linearized curve via the linear regression function (Excel, Microsoft, USA).
The inhibitory activity of the tested compounds was determined via 30 min pre-incubation with the enzyme at various concentrations of the inhibitor at room temperature in a 0.1 M phosphate buffer pH 7.5 with 5 µM PLP. The enzyme reaction was initiated by the addition of a substrate and cofactors. The final mixture contained 20 nM of hKAT-II, 0.3 mM of AAD, 50 µM α-ketoglutarate, 3 mM NAD^+, and 88 µg/mL of glutamic dehydrogenase. Kinetic data were collected over a period of 30 min, and the slope of the linearized curve was calculated as above. The inhibitory activity in %I at a given concentration was calculated for novel compounds using the following equation:(1) Inhibition [%I]=(V0− Vi/V0)×100, where V0 and Vi are the activity of the enzyme in the absence and presence of the inhibitor, respectively. All the data were obtained in pentaplicate for each measurement (n = 3). Alternatively, the IC50 values for selected novel compounds were assessed. GraphPad Prism 8 software (San Diego, USA) was used for the IC50 value calculation using non-linear regression (four parameters). […]

[1] = non-linear regression (four parameters), read-out: IC50 ± SEM

T1 sequence (Q8N5Z0 30-425): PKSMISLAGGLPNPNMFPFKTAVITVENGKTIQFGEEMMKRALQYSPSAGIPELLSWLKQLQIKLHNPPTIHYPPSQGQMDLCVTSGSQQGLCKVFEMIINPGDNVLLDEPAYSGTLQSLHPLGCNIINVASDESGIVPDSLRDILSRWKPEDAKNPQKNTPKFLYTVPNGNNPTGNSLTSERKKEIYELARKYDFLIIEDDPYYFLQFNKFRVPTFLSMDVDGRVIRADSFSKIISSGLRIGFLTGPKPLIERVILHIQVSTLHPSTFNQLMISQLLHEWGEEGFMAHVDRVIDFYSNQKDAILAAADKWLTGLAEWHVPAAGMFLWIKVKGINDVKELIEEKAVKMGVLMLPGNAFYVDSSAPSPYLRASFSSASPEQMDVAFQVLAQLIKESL

| SMILES | Inhibitory Activity [%I ± SEM] c = 1 µM (hKAT-II) [%I] | melting point | IC50 (hKAT-II; [1]) [nM] | IC50 (hKAT-II; assay validation, read-out: IC50 of the reference inhibitor) [nM] |
| --- | --- | --- | --- | --- |
| C[C@H](N)C(=O)c1cn(-c2ccc([N+](=O)[O-])cc2)nn1.Cl [Compound 26q] | 41.73 ± 2.66 | > 191 °C (dec.) | – | – |
| Cc1ccc(-n2cc(C(=O)[C@H](C)N)nn2)c(C)c1 [Compound 26g] | 41.60 ± 6.39 | > 175 °C (dec.) | – | – |
| COc1cccc(-n2cc(C(=O)[C@H](C)N)nn2)c1 [Compound 26b] | 18.20 ± 2.27 | > 171 °C (dec.) | – | – |
| C[C@H](N)C(=O)c1cn(-c2ccccc2Cl)nn1.Cl [Compound 26t] | 35.52 ± 3.63 | 138 to 169 °C (dec.) | – | – |
| CC[C@H](N)C(=O)c1cn(-c2ccc(F)cc2)nn1.Cl [Compound 32c] | 35.94 ± 2.87 | > 182 °C (dec.) | – | – |
| C[C@H](N)C(=O)c1cn(-c2ccccc2)nn1 [Compound 12, 4-alaninoyl-1-phenyl-1H-1,2,3-triazole] | 43.19 ± 2.30 | > 178 °C (dec.) | 3210 ± 260 | – |
| COc1ccccc1-n1cc(C(=O)[C@H](C)N)nn1 [Compound 26c] | 23.41 ± 3.97 | > 168 °C (dec.) | – | – |
| C[C@H](N)C(=O)c1cn(CCc2ccccc2)nn1.Cl [Compound 28b] | 11.84 ± 5.76 | > 172 °C (dec.) | – | – |
| CC[C@H](N)C(=O)c1ncc(-c2ccc(F)cc2Cl)s1.Cl [Compound 49d] | 59.71 ± 0.97 | > 134 °C (dec.) | 304 ± 39 | – |
| C[C@H](N)C(=O)c1ncc(-c2ccc(F)cc2)s1 [Compound 49a, 2-alaninoyl-5-(4-fluorophenyl)thiazole] | 61.54 ± 7.16 | – | 97 ± 14 | – |
| Cc1ccc(-n2cc(C(=O)[C@H](C)N)nn2)cc1 [Compound 26e] | 18.56 ± 2.33 | > 184 °C (dec.) | – | – |
| COc1ccc(-n2cc(C(=O)[C@H](C)N)nn2)cc1 [Compound 26a] | 38.50 ± 2.21 | > 180 °C (dec.) | – | – |
| N[C@H](C(=O)c1ncc(-c2ccccc2)s1)C1CC1 [Compound 25f] | 6.12 ± 2.66 | > 165 °C (dec.) | – | – |
| N[C@@H](Cc1ccccc1)C(=O)c1cn(-c2ccccc2)nn1 [Compound 21b] | 14.52 ± 3.71 | > 174 °C (dec.) | – | – |
| C[C@H](N)C(=O)c1cn(-c2cccnc2)nn1 [Compound 26l] | 23.63 ± 2.30 | – | – | – |
| C[C@H](N)C(=O)c1cn(Cc2ccccc2)nn1.Cl [Compound 28a] | 14.54 ± 3.19 | > 182 °C (dec.) | – | – |
| N[C@@H](CCc1ccccc1)C(=O)c1ncc(-c2ccccc2)s1 [Compound 25c] | 31.32 ± 0.88 | > 135 °C (dec.) | – | – |
| Cc1cccc(C)c1-n1cc(C(=O)[C@H](C)N)nn1 [Compound 26h] | 25.38 ± 2.22 | > 176 °C (dec.) | – | – |
| CC[C@H](N)C(=O)c1nc2ccccc2s1.Cl [Compound 34c] | 36.16 ± 3.81 | > 140 °C (dec.) | – | – |
| Cc1ccc(-n2cc(C(=O)[C@H](C)N)nn2)cc1C [Compound 26f] | 9.10 ± 2.07 | > 170 °C (dec.) | – | – |
| C[C@H](N)C(=O)c1cn(-c2ccc(F)c(Cl)c2)nn1 [Compound 26v] | 23.62 ± 4.30 | – | – | – |
| C[C@H](N)C(=O)c1cn(-c2cccnc2)nn1 (as salt: hydrochloride) [Compound 26l] | – | 140 to 143 °C (dec.) | – | – |

| SMILES | Inhibitory Activity [%I ± SEM] c = 1 µM (hKAT-II) [%I] | melting point | IC50 (hKAT-II; [1]) [nM] | IC50 (hKAT-II; assay validation, read-out: IC50 of the reference inhibitor) [nM] |
| --- | --- | --- | --- | --- |
| C[C@H](N)C(=O)c1cn(-c2cccc3ccccc23)nn1 [Compound 26i] | 4.32 ± 1.32 | > 172 °C (dec.) | – | – |
| C[C@H](N)C(=O)c1cn(-c2cccc([N+](=O)[O-])c2)nn1.Cl [Compound 26p] | 41.43 ± 2.67 | > 183 °C (dec.) | – | – |
| C[C@H](N)C(=O)c1cn(-c2ccc(C(C)(C)C)cc2)nn1 [Compound 26d] | 0.98 ± 1.98 | > 181 °C (dec.) | – | – |
| CC[C@H](N)C(=O)c1ncc(-c2ccc(F)cc2)s1 [Compound 49b] | 57.07 ± 0.31 | > 150 °C (dec.) | – | – |
| CC(C)[C@H](N)C(=O)c1ncc(-c2ccccc2)s1 [Compound 25a] | 31.24 ± 3.64 | > 170 °C (dec.) | – | – |
| C[C@H](N)C(=O)c1nc2ccccc2s1.Cl [Compound 34a] | 52.49 ± 1.31 | > 156 °C (dec.) | – | – |
| CCCC[C@H](N)C(=O)c1cn(-c2ccccc2)nn1.Cl [Compound 21d] | 13.46 ± 5.46 | > 173 °C (dec.) | – | – |
| C[C@H](N)C(=O)c1cn(-c2ccc(C(F)(F)F)cc2)nn1 [Compound 26o] | 9.70 ± 1.67 | – | – | – |
| C[C@H](N)C(=O)c1ncc(-c2ccc(F)cc2Cl)s1.Cl [Compound 49c] | 47.65 ± 1.71 | 127 to 134 °C (dec.) | – | – |
| C[C@H](N)C(=O)c1cn(-c2ccncc2)nn1.Cl.Cl [Compound 26m] | 33.48 ± 4.88 | > 183 °C (dec.) | – | – |
| C[C@H](N)C(=O)c1ncc(-c2ccccc2)s1 [Compound 11, 2-alaninoyl-5-phenylthiazole] | 41.41 ± 4.15 | > 168 °C (dec.) | 1620 ± 1430 | – |
| C[C@H](N)C(=O)c1cn(-c2ccc(Cl)cc2)nn1.Cl [Compound 26r] | 23.86 ± 2.95 | > 177 °C (dec.) | – | – |
| CCCC[C@H](N)C(=O)c1ncc(-c2ccccc2)s1 [Compound 25d] | 37.22 ± 2.53 | 124 to 127 °C | – | – |
| C[C@H](N)C(=O)c1cn(-c2cccc(Cl)c2)nn1 [Compound 26s] | 20.63 ± 3.78 | > 171 °C (dec.) | – | – |
| C[C@H](N)C(=O)c1cn(-c2ccccn2)nn1.Cl [Compound 26k] | 20.73 ± 1.83 | > 198 °C (dec.) | – | – |
| C[C@H](N)C(=O)c1cn(-c2ccc3ccccc3c2)nn1 [Compound 26j] | 27.81 ± 3.33 | > 182 °C (dec.) | – | – |
| C[C@H](N)C(=O)c1cn(-c2ccc(Cl)c(Cl)c2)nn1 [Compound 26u] | 19.33 ± 1.06 | > 163 °C (dec.) | – | – |
| N[C@H](C(=O)c1cn(-c2ccccc2)nn1)C1CC1 [Compound 21f] | 7.44 ± 3.75 | > 183 °C (dec.) | – | – |
| CC(C)[C@H](N)C(=O)c1cn(-c2ccccc2)nn1.Cl [Compound 21a] | 10.32 ± 4.81 | > 182 °C (dec.) | – | – |
| N[C@H]1Cc2ccccc2N(O)C1=O [Compound 3, PF-04859989, reference compound] | – | – | – | 28 ± 5 |
| CC[C@H](N)C(=O)c1cn(-c2ccccc2)nn1.Cl [Compound 21e] | 21.82 ± 4.80 | – | – | – |
| CC[C@H](N)C(=O)c1nc2ccc(F)cc2s1.Cl [Compound 34d] | 9.73 ± 1.41 | > 145 °C (dec.) | – | – |
